We go through 90 molecules from PubChem BioAssay AID2305 (GlaxoSmithKline (GSK), 2010).

In this experiment the test system is P. falciparum 3D7 growth, pLDH absorbance. In words: P. falciparum 3D7 growth inhibition, dose response, strain 3D7 (AID 2305).

`O=C1COC2(CN1C1CCN(Cc3ccc(O)cc3Cl)C1)c1ccccc1-c1ccccc12` (stereo not given): the IC50 is 1.33 µM.

For `FC(F)(F)COc1c(CNCCCCCCNCc2ccc3ccccc3c2OCC(F)(F)F)ccc2ccccc12`, the IC50 was 0.76 µM.

In turn, `CCc1cn2c3c(cc(C(=O)N[C@@H](Cc4cccc(F)c4)[C@H](O)CNC4CCOCC4)cc13)N(C)S(=O)(=O)CC2` returned an IC50 of 0.07 µM.

The molecule `COc1ccc(CN2CCN(CCCCNC(=O)c3ccc(NC(=O)c4ccc(Cl)cc4)cc3)CC2)c(OC)c1` showed an IC50 of 0.89 µM.

Molecule `COc1ccc2c(NN=Cc3ccccc3[N+](=O)[O-])cc(C)nc2c1` yielded an IC50 of 0.72 µM.

In turn, `Cc1ccccc1Oc1nc2ccccc2nc1SCC(=O)NC(C)C` gave an IC50 of 0.2 µM. Compared with the last molecule, the IC50 is about 3.6-fold lower.

The molecule `COc1cc(C(=O)Nc2ccc(-c3nc4ccccc4[nH]3)cc2)cc(OC)c1OC` showed an IC50 of 0.98 µM.

Consider `COc1cc(CN2CCC(N3CCc4cc(NC(=O)c5cc(C)on5)ccc43)C2)ccc1F` (stereo not given), for which the IC50 came to 0.61 µM.

The molecule `O=S(=O)(c1ccc2cc[nH]c2c1)N1CCC[C@@H]1CCN1CCC(c2c[nH]c3cnccc23)CC1` had an IC50 of 1.02 µM.

Molecule `NS(=O)(=O)NCCCN1CCN(c2ccccc2)CC1` displayed an IC50 of 0.98 µM.

The molecule `COc1ccc(-c2cccc(NC(=O)c3ccc(Cl)cc3)c2)cc1CN1CCC(O)CC1` gave an IC50 of 0.79 µM. This IC50 and that of the molecule before are within 1.5-fold of each other.

Turning to `Cc1[nH]c(C)c(-c2ccc(C(=O)c3ccc(Cl)cc3)cc2)c(=O)c1Cl`, the IC50 came to 0.53 µM.

For `N#Cc1ccc(-c2ccc(C(=O)NCCCCN3CCC(c4nc5ccccc5[nH]4)CC3)cc2)cc1`, the IC50 stood at 1.01 µM.

In the case of `CCCc1cc(Cc2cnc(N)nc2N)c2cccnc2c1OC`, the IC50 was 0.67 µM.

Regarding `CC1CCCN(C(=O)c2cc(-c3ccccn3)nc3c(Cl)cccc23)C1` (stereo not given), the IC50 worked out at 1.08 µM.

`Cc1cccc2[nH]c(-c3cccc(-c4ccc(NC(=O)Nc5ccc(F)c(F)c5F)cc4)c3)nc12` registered an IC50 of 0.17 µM.

In turn, `CCOc1ccc2nc(NC(=O)c3csnn3)sc2c1` registered an IC50 of 0.48 µM.

For the molecule `c1ccc(CCNCc2ccc(-c3ccc(CNCc4ccc5c(c4)OCO5)cc3)nc2)cc1`, the IC50 was determined as 1.25 µM.

Take `CN(C)CCC1CCN(CCS(=O)(=O)c2cccc(Nc3ccc(-c4ccsc4)cn3)c2)CC1`: the IC50 amounted to 0.94 µM.

For the molecule `O=S(=O)(NCCN1CCCC1)c1ccc(-c2ccc(CNCc3ccsc3)cc2)s1`, the IC50 stood at 0.83 µM.

`Cn1c(NC(=O)C2CCC(CNC(=O)c3ccc(O)c(-c4cccc([N+](=O)[O-])c4)c3)CC2)nc2ccccc21` (stereo not given) showed an IC50 of 0.98 µM.

Molecule `Cc1cccc(Oc2cccc3[nH]nc(N)c23)c1` yielded an IC50 of 1.04 µM.

`CC(C)Cc1cn(-c2nc(C(=N)N)cs2)c2cc(Cl)ccc12` yielded an IC50 of 0.15 µM.

Turning to `CN(C)c1cccc2c1nc(-c1ccco1)n2CCNCc1ccccc1`, the IC50 stood at 0.81 µM.

As to `COc1ccc(NC(=O)[C@H](Cc2ccccc2)Nc2cc(C)nc(NCc3ccccc3C)n2)cc1`, the IC50 came out at 0.79 µM.

Regarding `Cc1cccc2[nH]c(-c3cccc(-c4ccc(NC(=O)CC5NC(=O)c6ccccc65)cc4)c3)nc12` (stereo not given), the IC50 stood at 0.29 µM.

Molecule `O=C(/C=C/c1ccc(Cl)c(Cl)c1)NCCCCCN1CCC(C(=O)Nc2ccc(Cl)cc2)CC1` came in with an IC50 of 0.78 µM.

The molecule `COc1ccc2c(=O)c(I)c(C)[nH]c2c1` had an IC50 of 0.44 µM.

On to `CC(C)(CNC(=O)C1CCN(CC2CCCCC2)CC1)c1nc(-c2ccc(Cl)c(O)c2)c(-c2ccncc2)[nH]1`, for which the IC50 came out at 0.89 µM.

As for `COC(=O)c1ccc(CC(C)NCC(O)c2ccc3ccc4ccccc4c3c2)cc1` (stereo not given), the IC50 came to 0.22 µM.

`O=C(Nc1cccc(-c2ccc(-c3nc4ccc(C(F)(F)F)cc4[nH]3)s2)c1)c1cccnc1`: the IC50 came to 0.36 µM. This IC50 is about 1.6-fold higher than that of the molecule before.

The molecule `O=C(Nc1cccc(C(F)(F)F)c1)c1cc([N+](=O)[O-])cc2cn[nH]c12` yielded an IC50 of 0.99 µM.

Turning to `COc1ccc2cc(C(=O)NC3CCC(CCN4CCc5cc(C#N)ccc5C4)CC3)[nH]c2c1` (stereo not given), the IC50 came out at 1.01 µM.

As to `NC(=O)c1cccc(C(=O)Nc2cccc(-c3cccc(-c4nc5ccc(F)cc5[nH]4)c3)c2)c1`, the IC50 was determined as 0.25 µM.

In the case of `c1cc2nc(CCCCc3nc4ccc(C5=N[C@H]6CCCC[C@H]6N5)cc4[nH]3)[nH]c2cc1C1=N[C@H]2CCCC[C@H]2N1`, the IC50 turned out to be 0.41 µM.

The molecule `CCN(CC)CC(O)c1cc(-c2ccc(C)cc2)nc2c(C)cc(C)cc12` (stereo not given) had an IC50 of 0.17 µM.

Regarding `CC(Cc1ccc(OCc2ccccc2)c(Cl)c1)NCC(O)c1cccc(C(F)(F)F)c1` (stereo not given), the IC50 worked out at 0.94 µM.

In the case of `CCN(CC)CCNc1cc(C)nc(/N=C(\N)Nc2ccc(Cl)cc2)n1`, the IC50 amounted to 0.13 µM.

In the case of `CN1CCN(c2ccc(Nc3nccc(-c4c(-c5cccc(NC(=O)c6c(F)cccc6F)c5)nn5ccccc45)n3)cc2)CC1`, the IC50 turned out to be 0.11 µM.

Take `CC(Oc1ccc(Cl)cc1)C(=O)Nc1cc(C(F)(F)F)ccc1-n1cncn1` (stereo not given): the IC50 was found to be 0.15 µM.

Molecule `CC1CCCN(c2ccc(NC(=O)c3cccs3)cc2[N+](=O)[O-])C1` (stereo not given) returned an IC50 of 0.67 µM.

`Nc1nc(-c2ccc3c(Nc4ccc(F)c(Cl)c4)ccnc3c2)cs1`: the IC50 is 0.87 µM. This IC50 and that of the molecule before are within 1.5-fold of each other.

`Cc1nc2ccc(-c3nc4ccc(N)cc4[nH]3)cc2[nH]1` returned an IC50 of 0.23 µM.

As to `COc1cccc(-c2cnc(N)c(-c3nc4ccc(F)cc4[nH]3)c2)c1`, the IC50 stood at 0.85 µM. This IC50 is about 3.7-fold higher than that of the molecule before.

As to `COc1ccc(NC(=O)[C@H](CC(C)C)Nc2cc(C)nc(NCCc3ccccc3)n2)cc1`, the IC50 came to 0.89 µM.

The molecule `Cc1ccc(F)c(CN2CCC(N3CC(c4ccccc4)(c4ccccc4)OC3=O)CC2)c1Cl` had an IC50 of 0.59 µM. This IC50 lies about 1.5-fold lower than the previous one.

Molecule `CC(C)CC(C)NC(=O)C1Cc2c([nH]c3ccc(F)cc23)C2(CCN(Cc3ccccc3)CC2)N1` (stereo not given) registered an IC50 of 0.97 µM.

`O=C(c1cc2cccc([N+](=O)[O-])c2[nH]1)N1CCC(CCN2CCC(c3c[nH]c4ccccc34)CC2)CC1`: the IC50 was 0.94 µM.

For the molecule `COc1cc2c(cc1OC)CN(CCCCc1ccc(NC(=O)c3cc(Cl)cc(Cl)c3)cc1)CC2`, the IC50 was 1.2 µM.

As to `CC(C)(C)Cn1cc(-c2ccc(C(=O)NCCc3ccc(S(C)(=O)=O)cc3)cc2)c(N)n1` (tested in a mixture with another compound), the IC50 amounted to 0.65 µM.

On to `Cc1cc2nc(-c3ccc(C(=O)NCc4cccc(C(F)(F)F)c4)cc3)[nH]c2cc1C`, for which the IC50 came to 0.81 µM.

`Cc1nc2sccn2c1C(=O)NCCc1ccccc1Cl` gave an IC50 of 0.8 µM.

`COc1ccc(Nc2nccc(NCCNC(=O)Nc3cc(C)ccc3C)n2)cc1` registered an IC50 of 1.05 µM.

On to `NC(N)=NC(=O)Nc1ccc(Cl)c([N+](=O)[O-])c1`, for which the IC50 is 0.76 µM.

`O=C(N[C@H]1CCN(Cc2ccc(OCCCN3CCCCC3)cc2)C1)c1ccc(Oc2ccccc2)cc1` had an IC50 of 0.78 µM.

The molecule `COc1ccc(Cc2cnc(N)nc2N)cc1OCCCOc1ccccc1` showed an IC50 of 0.91 µM.

`CCCC1N=C(N)N=C(N)N1c1ccc(CC)cc1` (stereo not given) yielded an IC50 of 0.07 µM. This IC50 lies about 13-fold lower than the previous one.

`CN(C)C(=O)c1ccc(CN(Cc2ccc(OC(C)(C)C)cc2)Cc2ccc3c(c2)OCCO3)cc1` gave an IC50 of 0.83 µM.

Regarding `NCc1ccc(CNCc2cccc(-c3ccc(-c4nc5ccccc5[nH]4)cc3)c2)cc1`, the IC50 came out at 0.72 µM.

`Fc1ccc(C=NNc2nc3ccccc3[nH]2)cc1` registered an IC50 of 0.78 µM.

`CNCCNCc1cccc(-c2cccc(-c3nc4ccc(C(F)(F)F)cc4[nH]3)c2)c1` registered an IC50 of 0.2 µM.

On to `CCC(=O)Oc1ccc(NC(=O)c2cccc(OC)c2)cc1`, for which the IC50 was 0.77 µM.

The molecule `CC(C)Oc1ccc(C=CC(=O)Nc2noc3ccccc23)cc1` had an IC50 of 0.29 µM.

As to `CN1CCN(CCCCNc2c3ccccc3nc3ccccc23)CC1`, the IC50 was found to be 0.7 µM.

`COc1cccc(NC(=O)CSc2nc(-c3ccccc3Cl)ns2)c1` returned an IC50 of 0.81 µM.

The molecule `Cc1cc(N[C@@H](CC(C)C)C(=O)NCc2cccc(F)c2)nc(NCCc2ccccc2)n1` displayed a half-inhibitory concentration (IC50) of 1.08 µM.

In turn, `Cc1cc(I)ccc1Nc1nc2nonc2nc1Nc1ccc(I)cc1C` yielded an IC50 of 0.51 µM. Compared with the last molecule, the IC50 is about 2.1-fold lower.

In turn, `NC(=O)c1cccc(C(=O)Nc2cccc(-c3cccc(-c4nc5ccc(C(F)(F)F)cc5[nH]4)c3)c2)c1` displayed an IC50 of 0.13 µM.

As to `OC(CNC1CCCCCCC1)c1ccc(Cl)c(Cl)c1` (stereo not given), the IC50 was determined as 0.21 µM.

Regarding `CCc1c[nH]c2c(N3CCCC3=O)cc(C(=O)N[C@@H](Cc3ccccc3)[C@H](O)CNC(C)(C)c3cccc(OC)c3)cc12`, the IC50 was 0.19 µM.

Consider `CCOc1c(Cl)cc(Cl)cc1CNCCCNc1nc2ccccc2[nH]1`, for which the IC50 was 0.83 µM.

For `CN1CCCN(c2ccnc3cc4c(cc23)N(C(=O)c2ccccc2Cl)CC4)CC1`, the IC50 came out at 1.18 µM.

Regarding `Nc1nc2c(ncn2OC[C@H]2COP(=O)(O)CO2)c(=O)[nH]1`, the IC50 amounted to 0.57 µM.

`COc1ccc(C2N=C(N)N=C(N)N2c2ccc(Cl)cc2)cc1OC` (stereo not given) had an IC50 of 1 µM.

`CC(C)C[C@H](Nc1ccnc(NCC2CCCCC2)n1)C(=O)NCCOc1ccccc1` registered an IC50 of 1.02 µM.

In the case of `Cn1c(C2C[C@H]3CC[C@H](C2)N3CC2CCC(NC(=O)/C=C/c3ccc(Cl)c(Cl)c3)CC2)nc2ccccc21` (stereo not given in full), the IC50 turned out to be 0.56 µM.

In the case of `CN1CCN(CC(=O)Nc2ccc(-c3cccc(-c4nc5ccc(F)cc5[nH]4)c3)cc2)CC1`, the concentration for half-maximal inhibition (IC50) came out at 0.83 µM.

The molecule `Cc1ccc(CC(C)NCC(O)c2cccc(C(F)(F)F)c2)cc1F` (stereo not given) displayed an IC50 of 0.92 µM.

As for `c1ccn2c(Sc3ncnc4sccc34)ncc2c1`, the IC50 came to 0.66 µM.

`CCCCc1ccc2[nH]cc(C3=CCN(C)CC3)c2c1Br` yielded an IC50 of 0.63 µM.

For `COCc1cc(C)nc2sc(C(=O)Nc3cc(C(C)(C)C)ccc3O)c(N)c12`, the IC50 was determined as 0.71 µM.

For the molecule `Cc1cccc2c3c([nH]c12)C1(CCN(CCc2ccccc2)CC1)NC(C(=O)NCc1ccccc1)C3` (stereo not given), the IC50 stood at 1 µM.

Turning to `Cc1ccc(CN2CCCN(Cc3cccc(NC(=O)c4ccc(Cl)c(Cl)c4)c3)CC2)cc1`, the IC50 came to 0.9 µM.

Consider `O=C(Nc1ccc2ccccc2n1)c1ccccc1-c1ccccc1`, for which the IC50 amounted to 0.44 µM.

Regarding `NC(N)=NN=CC(=O)Nc1ccc(Cl)c(Cl)c1`, the IC50 worked out at 0.74 µM.

Molecule `CCN1CC=C(c2c[nH]c3ccccc23)CC1` registered an IC50 of 1.03 µM.

`CN1CCN(c2ccc(Cl)cc2NC(=O)C2COc3ccccc3O2)CC1` (stereo not given) showed an IC50 of 0.81 µM. The IC50 values of the last two molecules are within 1.5-fold of each other.

Turning to `N#Cc1cccc(-c2nc(NCc3cccc(C(F)(F)F)c3)nn2-c2cccc(C(F)(F)F)c2)c1`, the IC50 came to 0.59 µM. The IC50 values of the last two molecules are within 1.5-fold of each other.

The molecule `CCOC(=O)c1ccc(NC(=O)Nc2ccc(-c3cccc(-c4nc5c(C)cccc5[nH]4)c3)cc2)cc1` gave an IC50 of 0.14 µM.

`Cc1nc(Nc2ccc(C)c(Cl)c2)c2c(C)noc2n1`: the half-maximal inhibitory concentration (IC50) turned out to be 0.89 µM.
